# Tests used:
# [1] = molecular target: T1, LMP7 (Homo sapiens, UniProt P28062); experiment: Enzymatic inhibitory activity on LMP7 (MOLT-4 cell lysate, Ac-ANW-AMC substrate); type: biochemical; details: 1 hour pre-incubation
# T1 construct: using MOLT-4 cell lysate as the enzyme source of LMP7; endogenous in cells; host or cells: MOLT-4 (human acute lymphoblastic leukemia cells)
# Description: LMP7 is a catalytic subunit of immunoproteasomes. In this experiment, an enzymatic detection platform was established using its hydrolytic enzyme activity and used for compound activity detection. Using Ac-ANW-AMC (Bonston Biochem, Cat #S-320) as a substrate for LMP7, the amount of fluorescent group AMC (7-amino-4-methylcoumarin) released after hydrolysis can reflect the enzymatic activity. MOLT-4 cells are human acute lymphoblastic leukemia cells and have been identified as cells with high expression of LMP7. We established an enzymatic detection method for compound inhibition on LMP7 using MOLT-4 cell lysate as the enzyme source of LMP7 and detected the compound inhibitory activity (half inhibitory concentration, IC50).
# (§1) MOLT-4 cells were cultured in a 75 cm^2 cell culture flask (Corning) (37° C., 95% air, and 5% CO2) with RPMI-1640 (Biological Industries) medium containing 10% fetal bovine serum (Biological Industries) and 1% Pen Strep (Gibco) and passaged 2-3 times one week. 1×10^7 MOLT-4 cells were collected, resuspended in 1 ml of PBS (Solarbio), and centrifuged at 3000 rpm for 5 minutes. The supernatant was aspirated off. The cells were resuspended in 500 μl of lysis buffer (20 mM Tris, pH 8.0, 5 mM EDTA, plus Protease inhibitor (1:1000) and Phosphatase Inhibitor (1:100) when used) and left on ice for 30 minutes. The cells were broken by supersonic technique, 0.5 S on, 0.5 S off, for 2.5 S. The centrifuge was performed at 12000 rpm, 4° C. for 10 minutes. The supernatant was the cell lysate and protein quantification was performed by using the BCA method (Thermo, #23225).
# Compounds were diluted in a 5-fold gradient with 100% DMSO for a total of 9 concentrations: 2 W for each concentration was added to a 48-μl reaction buffer (20 mM Tris, pH 8.0, 0.5 mM EDTA) and mixed well as 4* compound (final concentrations: 2000, 400, 80, 16, 3.2, 0.64, 0.128, 0.0256, and 0 nM) for later use. A reaction buffer was used to prepare 4* MOLT-4 cell lysate at a final concentration of 20 ng/μl and 2*Ac-ANW-AMC at a final concentration of 100 µM. 5 μl of 4* compound was added to a 384-well plate (OptiPlate-384, purchased from PerkinElmer), added with 5 W of 4* cell lysate, centrifuged, and reacted in an incubator at 23° C. for 1 hour. 10 W of 2* Ac-ANW-AMC was added and the reaction was started by centrifugation at 23° C. in the dark for 2 hours. After completion of the reaction, the signal value (excitation wavelength 345 nm/emission wavelength 445 nm) was read on the CLARIO star^Plus (purchased from BMG LRBTECH). Enzyme activity was determined at 9 concentrations for each compound, and data were processed using the GraphPad Prism software to calculate the half inhibitory concentration of the compound on LMP7, i.e. the IC50 value.
# [2] = molecular target: T2, β5 (Homo sapiens, UniProt P28074); experiment: Enzymatic inhibitory activity on β5 (HEK-293 cell lysate, Ac-WLA-AMC substrate); type: biochemical; details: 1 hour pre-incubation
# T2 construct: using HEK-293 cell lysate as the enzyme source of D5; endogenous in cells; host or cells: HEK-293 (human embryonic kidney cells)
# Description: β5 is a catalytic subunit of immunoproteasomes. In this experiment, an enzymatic detection platform was established using its hydrolytic enzyme activity and used for compound activity detection. Using Ac-WLA-AMC (Bonston Biochem, Cat #5-330) as a substrate for D5, the amount of fluorescent group AMC (7-amino-4-methylcoumarin) released after hydrolysis can reflect the enzymatic activity. […] We established an enzymatic detection method for compound inhibition on D5 using HEK-293 cell lysate as the enzyme source of D5 and detected the compound inhibitory activity (half inhibitory concentration, IC50). The enzymatic inhibitory activity of compounds against D5 was used as a measure index of compound selectivity.
# as §1, with “HEK-293” for “MOLT-4”, “DMEM” for “RPMI-1640”, “performed” for “performed by”
# Compounds were diluted in a 5-fold gradient with 100% DMSO for a total of 9 concentrations. 2 W for each concentration was added to a 48-μl reaction buffer (20 mM Tris, pH 8.0, 0.5 mM EDTA) and mixed well as 4* compound (final concentrations: 100000, 20000, 4000, 800, 160, 32, 6.4, 1.28, and 0 nM) for later use. A reaction buffer was used to prepare 4*HEK-293 cell lysate at a final concentration of 25 ng/μl and 2*Ac-WLA-AMC at a final concentration of 20 μM. 5 W of 4* compound was added to a 384-well plate (OptiPlate-384, purchased from PerkinElmer), added with 5 W of 4*HEK-293 cell lysate, centrifuged, and reacted in an incubator at 23° C. for 1 hour. 10 W of 2* Ac-WLA-AMC was added and the reaction was started by centrifugation at 23° C. in the dark for 2 hours. After completion of the reaction, the signal value (excitation wavelength 345 nm/emission wavelength 445 nm) was read on the CLARIO star^Plus (purchased from BMG LRBTECH). Enzyme activity was determined at 9 concentrations for each compound, and data were processed using the GraphPad Prism software to calculate the half inhibitory concentration of the compound on D5, i.e. the IC50 value.
# [3] = molecular target: T1, LMP7; experiment: Cytological inhibitory activity on LMP7 in MOLT-4 cells; type: cell-based; details: incubation for 2 hours with compound, read-out: Cytological activity data LMP7 Activity (MOLT-4Cell)
# Protocol: MOLT-4 are human acute lymphoblastic leukemia cells and have been identified as cells with high expression of LMP7. In this experiment, the compounds were pre-incubated with MOLT-4, and Ac-ANW-AMC (BonstonBiochem, Cat #S-320) was used as the substrate of LMP7 to establish the detection method for the enzymatic activity of LMP7 in cells and detect the compound inhibitory activity (half inhibitory concentration, IC50).
# Cells were plated in a 24-well plate (Corning) at a concentration of 1.5×10^5/ml per well. The next day compounds were prepared and diluted in a 5-fold gradient from 2 mM in 100% DMSO for a total of 8 concentrations. 2 μl for each concentration of the compound was added to a 1-ml cell culture medium, supplemented with 1 ml of RPMI-1640 only (final FBS concentration 5%, v/v). The compounds were mixed with the cells. After incubation for 2 hours in the incubator, the cells were centrifuged at 2000 rpm for 8 minutes to discard the supernatant. The cells were washed once with 2 ml PBS (Solarbio), and centrifuged again to discard the supernatant. The cells were resuspended in 100 μl of lysis buffer (20 mM Tris, pH 8.0, 5 mM EDTA, plus Protease inhibitor (1: 100) and Phosphatase Inhibitor (1:100) when used) and left in a 4° C. refrigerator for 45 minutes.
# After 2 min. of centrifuge at 2000 rpm, the lysate was transferred from the 24-well plate to a 96-well plate, and centrifuged at 2000 rpm, 4° C., for 15 min. The supernatant was the lysate. Protein quantification was performed using the BCA method (Thermo, #23225). A 2* lysate was prepared with the reaction buffer (20 mM Tris, pH 8.0, 0.5 mM EDTA) at a final concentration of 20 ng/μl. 2* Ac-ANW-AMC was prepared with the reaction buffer at a final concentration of 100 μM. 10 µl of 2* lysate was added to a 384-well plate (OptiPlate-384, purchased from PerkinElmer), and added with 10 W of 2* Ac-ANW-AMC. The reaction was started by centrifugation at 23° C. in the dark for 1 hour. After completion of the reaction, the signal value (excitation wavelength 345 nm/emission wavelength 445 nm) was read on the CLARIO starPlus (purchased from BMG LRBTECH). Enzyme activity was determined at 8 concentrations for each compound, and data were processed using the GraphPad Prism software to calculate the half inhibitory concentration of the compound on LMP7 hydrolase in MOLT-4 cells, i.e. the IC50 value.
Structure (SMILES),IC50 [1],IC50 [2],IC50 [3]
"O=C(Nc1cnccn1)C(=O)N[C@@H](Cc1coc2ccccc12)B1OC(=O)c2ccccc2O1 [Ex. 20, N-((1R)-2-(1-benzofuran-3-yl)-1-(4-oxo-2,4-dihydro-1,3,2-benzo[d][1,3,2]dioxaborinin-2-yl)ethyl)-N-(pyrazin-2-yl)oxalamide]",1.2 nM,18.8 nM,0.32 nM
"O=C(Nc1cccnc1)C(=O)N[C@@H](Cc1coc2ccccc12)B(O)O [Ex. 21, (R)-(2-(benzofuran-3-yl)-1-(2-(pyridin-3-yl)amino-2-oxoacetamido)ethyl) boronic acid]",2.86 nM,29 nM,3.45 nM
"O=C(NCC1CCCO1)C(=O)N[C@@H](Cc1coc2ccccc12)B(O)O (stereo partly drawn) [Ex. 22, (R)-(2-(benzofuran-3-yl)-1-(2-(((tetrahydrofuran-2-yl)methyl)amino)-2-oxoacetamido)ethyl)boronic acid]",3.57 nM,22.2 nM,1.83 nM
"CC1(C)[C@@H]2C[C@H]3OB([C@H](Cc4coc5ccccc45)NC(=O)C(=O)Nc4ccccn4)O[C@@]3(C)[C@H]1C2 [Ex. 23, (R)-(2-(benzofuran-3-yl)-1-(2-oxo-2-(pyridin-2-ylamino)acetamido)ethyl) boronic acid (1S,2S,3R,5S)-(+)-pinane-2,3-diol ester]",3.81 nM,126 nM,1.65 nM
"O=C(Nc1cc(Cl)ccc1Cl)C(=O)N[C@@H](Cc1coc2ccccc12)B(O)O [Ex. 24, ((R)-2-(benzofuran-3-yl)-1-(2-oxo-2-((2,5-dichlorophenyl)amino)acetamido)ethyl)boronic acid]",6.27 nM,115 nM,3.92 nM
"COc1ccc2nc(NC(=O)C(=O)N[C@@H](Cc3coc4ccccc34)B(O)O)sc2c1 [Ex. 26, (R)-(2-(benzofuran-3-yl)-1-(2-oxo-2-((6-methoxybenzo[d]thiazol-2-yl)amino)acetamido)ethyl)boronic acid]",4.86 nM,19.4 nM,0.73 nM
"O=C(Nc1cccc2c1OCC2)C(=O)N[C@@H](Cc1coc2ccccc12)B(O)O [Ex. 28, (R)-(2-(benzofuran-3-yl)-1-(2-oxo-2-((2,3-dihydrobenzofuran-7-yl)amino)acetamido)ethyl)boronic acid]",3.82 nM,22.6 nM,3.84 nM
"O=C(N[C@@H](Cc1coc2ccccc12)B(O)O)C(=O)N1CC2COCC2C1 (stereo partly drawn) [Ex. 29, (R)-(2-(benzofuran-3-yl)-1-(2-oxo-2-(tetrahydro-1H-furo[3,4-c]pyrrol-5(3H)-yl)acetamido)ethyl)boronic acid]",7.81 nM,41.4 nM,15.9 nM
"O=C(Nc1cccc2c1OCCO2)C(=O)N[C@@H](Cc1coc2ccccc12)B(O)O [Ex. 30, (R)-(2-(benzofuran-3-yl)-1-(2-oxo-2-((2,3-dihydrobenzo[b][1,4]dioxin-5-yl)amino)acetamido)ethyl)boronic acid]",5.61 nM,24.6 nM,8.77 nM
"Cc1csc(NC(=O)C(=O)N[C@@H](Cc2coc3ccccc23)B(O)O)n1 [Ex. 31, (R)-(2-(benzofuran-3-yl)-1-(2-oxo-2-((4-methylthiazol-2-yl)amino)acetamido)ethyl)boronic acid]",2.91 nM,72.5 nM,11 nM
"CC1(C)[C@@H]2C[C@H]3OB([C@H](Cc4coc5ccccc45)NC(=O)C(=O)Nc4ncc(F)s4)O[C@@]3(C)[C@H]1C2 [Ex. 33, (R)-(2-(benzofuran-3-yl)-1-(2-oxo-2-((5-fluorothiazol-2-yl)amino)acetamido)ethyl)boronic acid (1S,2S,3R,5S)-(+)-pinane-2,3-diol ester]",3.08 nM,39 nM,9.5 nM
"O=C(Nc1ncc(F)s1)C(=O)N[C@@H](Cc1coc2ccccc12)B(O)O [Ex. 34, (R)-(2-(benzofuran-3-yl)-1-(2-oxo-2-((5-fluorothiazol-2-yl)amino)acetamido)ethyl)boronic acid]",7.46 nM,132 nM,29.2 nM
